These results are taken from patent publication US10267797B2, “Detection of oral microbial virulence factors” (The Procter & Gamble Company, priority 2015, dated 2019).

Assay [1] concerns THP-1 cells stimulated by P. gingivalis LPS 1690. Kind of assay: Inhibition of LPS stimulated cytokine production in THP-1 cells. It is filed as cell-based, human. The note with it: 0.3 mM to 9 mM citrulline; 300 ng/ml LPS; 24 hours; IL-6, TNF-α, IL-12p70, IL-10, IL-2, IFN-r, IL-1β (FIG. 26). As to the method: Citrulline was purchased from Sigma-Aldrich (St. Louis, Mo.). THP1-Dual™ cells were purchased from Invivogen (San Diego, Calif.). Cells were cultured following the manufacturer's instruction, as described in EXAMPLE 11. For treatment, 0.3 mM to 9 mM of citrulline were first added to the culture medium. […] After 24 hours of treatment, media was collected and analyzed for cytokine production using 9-plex kit (Meso Scale Diagnostics Rockville, Md.).

A further assay concerns the target T1, TLR4 (Homo sapiens, UniProt O00206+Q9Y6Y9).
T1 construct: host or cells: HEK 293T (HEK-Blue hTLR4)
It is filed as cell-based. Particulars: for reduction of P. gingivalis LPS activation on the TLR4 reporter system: P. gingivalis LPS 500 ng/ml.

For a further assay, the system named is E. coli LPS. The note with it: 0.63 mM; E. coli LPS 15 μg/ml.
Another assay has as its target TLR2 (Homo sapiens, UniProt O60603). Kind of assay: TLR2-SEAP reporter gene assay in HEK 293T cells. The note with it: P. gingivalis LPS; stannous 1000 uM (FIG. 4). (In general: Reporter assays use an easily measured gene product as a stand-in for the process of interest.)

Where two headings read alike, the source gives them in different places.

T1 sequence (Q9Y6Y9 17-160): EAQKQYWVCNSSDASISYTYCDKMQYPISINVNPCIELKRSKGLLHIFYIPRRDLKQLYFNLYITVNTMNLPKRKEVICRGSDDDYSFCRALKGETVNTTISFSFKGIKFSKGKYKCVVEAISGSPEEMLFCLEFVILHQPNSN
T1 sequence (O00206 24-839): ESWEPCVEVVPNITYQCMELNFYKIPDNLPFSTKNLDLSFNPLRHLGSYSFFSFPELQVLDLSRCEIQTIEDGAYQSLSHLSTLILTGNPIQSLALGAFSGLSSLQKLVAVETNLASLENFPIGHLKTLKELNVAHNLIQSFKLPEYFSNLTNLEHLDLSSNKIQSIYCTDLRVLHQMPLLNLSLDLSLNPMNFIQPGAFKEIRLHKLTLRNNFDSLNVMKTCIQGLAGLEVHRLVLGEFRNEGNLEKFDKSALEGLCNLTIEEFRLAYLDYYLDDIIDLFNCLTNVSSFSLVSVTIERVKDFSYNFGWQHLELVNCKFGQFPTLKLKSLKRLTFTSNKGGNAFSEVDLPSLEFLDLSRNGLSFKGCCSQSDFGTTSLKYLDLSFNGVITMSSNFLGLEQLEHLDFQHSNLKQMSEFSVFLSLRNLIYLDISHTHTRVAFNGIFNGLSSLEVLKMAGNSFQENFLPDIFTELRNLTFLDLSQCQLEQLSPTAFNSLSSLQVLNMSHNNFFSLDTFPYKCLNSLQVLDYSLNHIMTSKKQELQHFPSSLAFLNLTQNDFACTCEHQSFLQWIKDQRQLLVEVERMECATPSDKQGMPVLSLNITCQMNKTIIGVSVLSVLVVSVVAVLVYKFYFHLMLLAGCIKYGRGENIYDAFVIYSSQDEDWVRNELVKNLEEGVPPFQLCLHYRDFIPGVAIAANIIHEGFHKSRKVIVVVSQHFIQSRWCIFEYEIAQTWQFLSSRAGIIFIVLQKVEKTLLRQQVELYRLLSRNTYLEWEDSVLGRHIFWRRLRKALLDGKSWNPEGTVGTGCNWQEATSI
TLR2, sequence (O60603 21-784): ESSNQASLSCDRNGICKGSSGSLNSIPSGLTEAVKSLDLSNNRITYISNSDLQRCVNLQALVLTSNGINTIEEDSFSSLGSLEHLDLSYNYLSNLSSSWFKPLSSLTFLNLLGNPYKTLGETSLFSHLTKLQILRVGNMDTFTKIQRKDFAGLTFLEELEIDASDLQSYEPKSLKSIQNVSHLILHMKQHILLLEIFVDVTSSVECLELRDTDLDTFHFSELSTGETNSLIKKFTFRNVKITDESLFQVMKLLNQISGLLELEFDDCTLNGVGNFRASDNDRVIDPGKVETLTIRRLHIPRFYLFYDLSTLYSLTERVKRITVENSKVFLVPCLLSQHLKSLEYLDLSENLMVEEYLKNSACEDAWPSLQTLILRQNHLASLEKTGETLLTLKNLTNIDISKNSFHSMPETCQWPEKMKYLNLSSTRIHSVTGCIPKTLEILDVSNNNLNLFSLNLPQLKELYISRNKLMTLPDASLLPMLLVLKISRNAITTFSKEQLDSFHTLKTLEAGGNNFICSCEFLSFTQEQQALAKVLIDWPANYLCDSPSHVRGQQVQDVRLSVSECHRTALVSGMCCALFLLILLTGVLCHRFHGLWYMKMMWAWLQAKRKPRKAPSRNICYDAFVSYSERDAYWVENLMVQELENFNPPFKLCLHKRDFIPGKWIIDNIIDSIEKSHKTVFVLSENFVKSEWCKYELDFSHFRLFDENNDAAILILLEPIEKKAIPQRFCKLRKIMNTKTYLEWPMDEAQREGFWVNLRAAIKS
Description for TLR2: The cell line is named here as TLR2-SEAP. The reporter gene encodes a secreted enzyme, called embryonic alkaline phosphatase or SEAP. The SEAP reporter is placed under the control of the interferon-β minimal promoter fused to five NFkB and AP-1-binding sites. Furthermore, a CD14 co-receptor gene was transfected into the reporter gene cells expressing TLR2, as CD14 has been identified as a co-receptor for TLR2 ligands to enhance the TLR response. The CD14 co-receptor is needed to transfer LTA to TLR2 receptors. The recombinant TLR2 binds its ligand, or distinct pathogen-associated molecule, initiates a chain of responses, leading to recruitment of NFkB and AP1 transcription factors to the reporter gene promoter, which induce expression of SEAP.
For treatment with LTA, wells of a 96-well plate were seeded with 10,000 cells/well in 100 μL of growth medium. […] On day 4, medium (100 μL) was changed to DMEM medium without fetal calf serum. […] Samples were taken 24 hours later, following addition of samples. Expression of the reporter gene (SEAP) was quantified with a commercially available kit (SEAP Reporter Gene Assay of Cayman Chemical Co., Ann Arbor, Mich.).
Description for TLR4: The cell line is named here as TLR4-SEAP. The reporter gene encodes a secreted enzyme, called embryonic alkaline phosphatase or SEAP. The SEAP reporter is placed under the control of the interferon-β minimal promoter fused to five NFkB and AP-1-binding sites. Furthermore, the TLR4-SEAP cell line also contains a CD14 co-receptor gene, which is needed to transfer LPS to TLR4 receptors. The recombinant TLR binds its ligand, or distinct pathogen-associated molecule, initiates a chain of responses, leading to recruitment of NFkB and AP1 transcription factors to the reporter gene promoter, which induce expression of SEAP.
For treatment, wells of a 96-well plate were seeded with 10,000 cells/well in 100 μL of growth medium. […] On day 4, medium was changed to assay medium (90 μl), which is the DMEM medium without fetal calf serum. […] 10 μl of the bacteria, LPS and culture medium of bacterial growth were added to the TLR4-SEAP cells. Samples were taken 24 hours later, following addition of LPS, bacteria, and culture medium. Expression of the reporter gene (SEAP) was quantified with a commercially available kit (SEAP Reporter Gene Assay of Cayman Chemical Co., Ann Arbor, Mich.).
EC50 was calculated using GraphPad Prism software (GraphPad Software, La Jolla, Calif.).
Tests were conducted to understand whether stannous fluoride could reduce LPS's ability to trigger proinflammatory responses in host cells.

For `NC(=O)NCCC[C@H](N)C(=O)O` [Citrulline], in assay [1], the “effect on P. gingivalis LPS 1690 stimulated proinflammatory cytokine production” value is listed as “inhibited”.
As for `[F][Sn][F]` [Tin (II) fluoride], the “level of E. coli induction of TLR-4” value on TLR4 (100 ng/ml E. coli LPS, stannous 500 uM or higher (FIG. 3)) is “decreased”. For the same molecule, the “reduction of P. gingivalis LPS activation on the TLR4 reporter system” value on TLR4 (3.2 mM (FIG. 5)) and at TLR4 ([…] (FIG. 5)) was “about 50%” in each case. The Displacement % with E. coli LPS was 12.69%. Besides, the “level of P. gingivalis induction of TLR-2” value at TLR2 is on record as “decreased”.
